Laboratory results: patent US8114602B2 (priority 2003, dated 2012)
“And” between values parts separate entries of the source, which are not always exact repeats. Equal entries are not always repeated. “Also recorded” adds a separate entry of the source.

Assays:
[1] = test system: membranes free of GM1 and GTIB; format: binding
GTIB [2] = format: binding, bovine
GM1 [3] = format: binding, bovine; conditions: read-out: effective dissociation constant
GM1 [4] = format: binding, bovine; design: Ei (effective interaction energy): unit not given here
GTIB [5] = format: binding, bovine; conditions: read-out: effective dissociation constant

Q: For Cholera Toxin B-subunit [CTB], which “Ei (effective interaction energy)” value [1] is on record?
A: The value was 2.52 ± 0.09.

Q: What about the “detection signal / binding in selectivity series” value [1] of the same substance?
A: Its value is “Negative signals; also recorded: absence of binding”.

Q: And the “Ei (effective interaction energy)” value (GTIB [2])?
A: The value was 2.47 ± 0.09.

Q: What about the “colloidal phase response (condensed to dispersed transition)” value (“colloidal phase response” below) (GTIB [2]) of the same substance?
A: The value was “without producing any effect; also recorded: no effect”.

Q: What about the Kd (GM1 [3]) of the same substance?
A: The Kd was ~41 nM and ~60 nM.

Q: And the “Ei (effective interaction energy)” value (GM1 [4])?
A: The value was 0.56 ± 0.12.

Q: And the “colloidal phase response” value (GM1 [4])?
A: The value was “triggered the transition to a dispersed phase; also recorded: induces the transition”.

Q: And the “detection signal / binding in selectivity series” value (GM1 [4])?
A: The value was “positive signal; also recorded: detected binding”.

Q: What about the “first peak in the g(r) plot” value (GM1 [4]) of the same substance?
A: The value was “noticeably absent”.

Q: How did the Kd (GTIB [5]) turn out when tetanus toxin [TT] was run?
A: Its Kd is ~60 nM and ~41 nM.

Q: What about the “Ei (effective interaction energy)” value [1] of the same substance?
A: Its value is 2.61 ± 0.05.

Q: What about the “detection signal / binding in selectivity series” value [1] of the same substance?
A: The value was “Negative signals”.

Q: What about the “colloidal phase response” value (GTIB [2]) of the same substance?
A: The value was “triggered formation of a dispersed phase; also recorded: induces a condensed to dispersed phase transition”.

Q: What about the “detection signal / binding in selectivity series” value (GTIB [2]) of the same substance?
A: Its value is “positive signal; also recorded: detected binding”.

Q: What about the “first peak in the g(r) plot” value (GTIB [2]) of the same substance?
A: The value was “noticeably absent”.

Q: What about the “Ei (effective interaction energy)” value (GM1 [4]) of the same substance?
A: Its value is 2.63 ± 0.05.

Q: And the “colloidal phase response” value (GM1 [4])?
A: The value was “no effect”.

Q: What about the “detection signal / binding in selectivity series” value (GM1 [4]) of the same substance?
A: Its value is “Negative signals”.

Q: How did the “Ei (effective interaction energy)” value [1] turn out when α-Bungarotoxin [BT] was run?
A: The value was 2.67 ± 0.10.

Q: And the “detection signal / binding in selectivity series” value [1]?
A: The value was “Negative signals”.

Q: And the “Ei (effective interaction energy)” value (GTIB [2])?
A: Its value is 2.71 ± 0.08.

Q: And the “colloidal phase response” value (GTIB [2])?
A: Its value is “no effect”.

Q: What about the “Ei (effective interaction energy)” value (GM1 [4]) of the same substance?
A: Its value is 2.84 ± 0.02.

Q: And the “colloidal phase response” value (GM1 [4])?
A: The value was “no effect”.
